US8858917B2, “Methods for limiting spread of pulmonary infections” (priority 2002, dated 2014)
Values belong to the compound of their own block, whether it stands above or below them. Numbered stars: 1 amine (or outer) side, 2 acyl side, 3 side chain; on linkers, the order of the positions; unused ones are H or OH. Bridge positions count the residues as written; N and C are the ends. Square brackets hold non-standard residues; d marks the D form. Peptide text beside a SMILES is read from it. X1 = CC(C)CCCCCCCCC[C@H](CC(=O)[*:1])O[*:2]

Experiments:
[1] = Dispersion / precipitation in ethanol; assay type: physicochemical; conditions: room temperature
[2] = tested on: viruses susceptible to its action; conditions: medium containing 5% fetal calf serum (FCS); cited from earlier work
HSV-1 and HSV-2 strains = conditions: cultured cells; cited from earlier work
HIV-1 (strain NL4-3) = conditions: pretreatment of virus; cited from earlier work
NIH 3T3 fibroblasts = conditions: 30% ethanol in 10% FBS DMEM for 10 seconds

concentration successfully dispersed in ethanol before sedimentation of aggregates [1]: up to 100 mg/mL
Structure (SMILES): CCCCCCCCCCCCCCCC(=O)OC[C@H](COP(=O)([O-])OCC[N+](C)(C)C)OC(=O)CCCCCCCCCCCCCCC [DPPC, dipalmitoyl phosphatidyl choline]

Structure (SMILES): CC(C)CCCCCCCCC[C@@H]1CC(=O)N[C@@H](CCC(=O)O)C(=O)N[C@@H](CC(C)C)C(=O)N[C@H](CC(C)C)C(=O)N[C@@H](C(C)C)C(=O)N[C@@H](CC(=O)O)C(=O)N[C@H](CC(C)C)C(=O)N[C@@H](CC(C)C)C(=O)O1 [surfactin] (EL[dL]VD[dL]L; linker N-C via X1)
concentration at which active [2]: 25 µM

Structure (SMILES): CCCCCCCCCCCCOS(=O)(=O)[O-].[Na+] [SLS, sodium lauryl sulfate]
inhibition of infectivities of various HSV-1 and HSV-2 strains (HSV-1 and HSV-2 strains): potent inhibitors
infectivity of HIV-1 to 1G5 cells after pretreatment (HIV-1 (strain NL4-3)): reduced its infectivity

Structure (SMILES): CCO [ethanol]
cell death after exposure (CMFDA staining) (NIH 3T3 fibroblasts): insufficient to cause cell death
